Columns and labels:
Format in all cases: in vitro ADME
[1] = In vitro plasma conversion experiment of target compounds (Embodiment 7.5); conditions: rat, 2 mg/mL (as Epacadostat equivalents)
Protocol: (§1) Mobile phase: acetonitrile (50% to 80%) and water gradient elution.
(§2) Flow rate: 1 mL/min at a column temperature of 25° C.
(§3) Detection wavelength: 254 nm at a sample size of 10 μL.
The target compounds were dissolved into a DMSO solvent. […] 20 μL of the solution was taken and added into 1.18 mL of fresh rat blank plasma, and incubation was carried out at 37° C. to obtain a sample.
(§4) 120 μL of the sample was precisely sucked at a specified time point each time. 120 μL of acetonitrile was added. High-speed vortex mixing was performed for 2 min. Centrifugation was performed at 10000 r/min for 15 min. Supernatant was taken and filtered by a 13 mm 0.45 μm filter membrane, and then determination could be performed.
Incubation was performed at 37° C. 120 μL of sample was taken at different time points respectively. Sample pretreatment was performed according to the method of 7.3. Determination was performed by an HPLC method. A peak area was recorded, and a drug concentration was calculated.
According to the method of 7.4, we performed in vitro plasma conversion experiment on the target compounds to test conversion rates of the compounds converted into the Epacadostat at different time points.

[2] = Original drug Epacadostat plasma stability test (Embodiment 7.4); conditions: rat plasma, 37° C.
Protocol: Liquid chromatograph: Waters 2489UV/Visible Detector, Waters 1525BinaryHPLC Pump.
as §1, §2, §3
(§5) Under the condition of no mobile phase interference, the Epacadostat retention time was about 20 min.
as §4
20 μL of DMSO solution (120 mg/mL) of Epacadostat was taken and added into 1.18 mL of fresh rat blank plasma. Incubation was performed at 37° C. 120 μL of sample was taken at different time points respectively. Sample pretreatment was performed according to the method of 7.3. Determination was performed by an HPLC method. A peak area was recorded, and a drug concentration was calculated.

[3] = Original drug Epacadostat plasma stability test (Embodiment 14, 6.4); conditions: rat plasma, 37° C.
Protocol: Liquid chromatograph: Waters 2489UV/Visible Detector, Waters 1525Binary HPLC Pump.
as §1, §2, §3, §5, §4
20 μL of DMSO solution (120 mg/mL) of Epacadostat was taken and added into 1.18 mL of fresh rat blank plasma. Incubation was performed at 37° C. 120 μL of sample was taken at different time points respectively. Sample pretreatment was performed according to the method of 6.3. Determination was performed by an HPLC method. A peak area was recorded, and a drug concentration was calculated.

Row | SMILES | Conversion rate into Epacadostat ([1]; 0.5 h) | Conversion rate into Epacadostat ([1]; 1 h) | Conversion rate into Epacadostat ([1]; 2 h) | Conversion rate into Epacadostat ([1]; 3 h) | Conversion rate into Epacadostat ([1]; 6 h) | Conversion rate into Epacadostat ([1]; 12 h) | Epacadostat concentration in plasma ([2]; time 1 h) | Epacadostat concentration in plasma ([2]; time 3 h) | Epacadostat concentration in plasma ([2]; time 6 h) | Epacadostat concentration in plasma ([2]; time 24 h) | Stability in plasma (in words) ([2]; up to 24 h) | Epacadostat concentration in plasma ([3]; time 1 h) | Epacadostat concentration in plasma ([3]; time 3 h) | Epacadostat concentration in plasma ([3]; time 6 h) | Epacadostat concentration in plasma ([3]; time 24 h) | Stability in plasma (in words) ([3]; up to 24 h)
1 | CCCC(=O)O/N=C(\Nc1ccc(F)c(Br)c1)c1nonc1NCCNS(=O)(=O)N=Cc1ccc(N(C)C)cc1 [II-3] | 31.1% | 43.1% | 58.3% | 70.3% | 88.3% | 98.3% | – | – | – | – | – | – | – | – | – | –
2 | NS(=O)(=O)NCCNc1nonc1C(=NO)Nc1ccc(F)c(Br)c1 [Epacadostat] | – | – | – | – | – | – | 1.22 mg/mL | 1.20 mg/mL | 1.24 mg/mL | 1.20 mg/mL | can stably exist in the plasma | 1.22 mg/mL | 1.20 mg/mL | 1.24 mg/mL | 1.20 mg/mL | can stably exist in the plasma
3 | CCCCC(=O)O/N=C(\Nc1ccc(F)c(Br)c1)c1nonc1NCCNS(=O)(=O)N=Cc1ccc(Cl)s1 [II-4] | 47.2% | 49.0% | 51.6% | 75.2% | 89.6% | 100% | – | – | – | – | – | – | – | – | – | –
4 | CC(C)C(=O)O/N=C(\Nc1ccc(F)c(Br)c1)c1nonc1NCCNS(=O)(=O)N=Cc1cccs1 [II-1] | 33.7% | 56.3% | 77.2% | 87.2% | 93.8% | 100% | – | – | – | – | – | – | – | – | – | –
